In one data set the test system is human red blood cells. Description: in vitro. The following applies: in words. The method in brief:
(§1)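 Hemolysis expressed as LC50, the concentration giving 50% erythrocyte lysis. Supernatant A540 was scaled between buffer-only blank and 0.2% Triton X100 total lysis after 1 h, 37 °C exposure of 5% v/v human red cells to 2-200 μmol.l^−1 peptide in physiological solution.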

For the next data set, the system named is P. aeruginosa (Liberec). Nature of the data set: Synergistic effect of peptides with antibiotics, FIC index. In kind it is cell-based, Pseudomonas aeruginosa. As to conditions: FIC <0.5 synergism, 0.5-2 additive, >2 antagonism, averages of three experiments; for FIC indexes (fractional inhibitory concentration) Combination with RIF against P. aeruginosa: peptide combined with rifampicin; for FIC indexes (fractional inhibitory concentration) Combination with TET against P. aeruginosa: peptide combined with tetracycline. In outline: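 Checkerboard MICs of two-fold serial dilutions of peptide plus antibiotic, same broth method as single-agent MICs. FIC index is the sum of each agent's MIC in combination divided by its MIC alone. <0.5 = synergy, 0.5–2 = additive, >2 = antagonism.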

Data set [1] has as its system Pseudomonas aeruginosa 5482. The following applies: 37° C., 20 h. In outline: (§2)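 Exponential-phase cultures were diluted and added at ca 10^5 CFU per well to twofold serial dilutions of peptide (final 0.1–100 μmol.l^−1) in LB medium.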
In data set [2] the test system is Methicillin resistant Staphylococcus aureus (MRSA) 6271. As to conditions: 37° C., 20 h. In outline:
as §2

Data set [3] deals with Staphylococcus aureus Motol. The following applies: Staphylococcus aureus Motol clinical isolate; 37° C., 20 h. In outline:
as §2

For a further data set, the system named is Candida albicans Olomouc. The following applies: Candida albicans Olomouc; YPD medium; 37° C., 20 h (Example 2).
Another data set relates to Escherichia coli. As to conditions: 37° C., 20 h. The method in brief:
as §2

Data set [4] deals with Staphylococcus epidermidis Motol. The following applies: 37° C., 20 h. The method in brief: as §2
The subject of the next data set is Bacillus subtilis. The following applies: Bacillus subtilis; 37° C., 20 h. The method in brief:
as §2

For data set [5], the system named is Enterococcus faecalis Motol. As to conditions: BHI medium, 37° C., 20 h.
Data set [6] relates to Staphylococcus aureus Liberec. As to conditions: Staphylococcus aureus Liberec clinical isolate; 37° C., 20 h. In outline: as §2
The test system of a further data set is Micrococcus luteus. The following applies: Micrococcus luteus; 37° C., 20 h. In outline: as §2
Data set [7] deals with Pseudomonas aeruginosa Liberec. The following applies: Pseudomonas aeruginosa Liberec; 37° C., 20 h. The method in brief:
as §2

The test system of the next data set is S. aureus (Liberec). Nature of the data set: Synergistic effect of peptides with antibiotics, FIC index. In kind it is cell-based, Staphylococcus aureus. As to conditions: peptide combined with amoxicillin; FIC <0.5 synergism, 0.5-2 additive, >2 antagonism; averages of three experiments. Here is the method: MICs values of various combinations of two fold serial dilutions of peptides and antibiotics were determined using the same methodology as in the case of antimicrobial activity determination (Example 2). To consider the type of the final effect, FIC indexes (fractional inhibitory concentration) were used and calculated as follows:
[formula] where MICPC and MICAC are the MICs of the peptide and antibiotic in combination, respectively, and MICP and MICA are the MICs of the peptide and antibiotic tested alone, respectively. FIC<0.5 were considered as synergy, 0.5≤FIC≤2 as addition effect, and FIC>2 as antagonism.

Data set [8] relates to Candida glabrata ATCC 2001. Nature of the data set: microbe, parasite or virus in culture. It counts as cell-based. As to conditions: RPMI broth microdilution, 35° C., 48 hours, visual. In outline: (§3)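 RPMI 1640/0.165 M MOPS microdilution; peptides 0.625–160 μmol.l^−1 as pipetted; final 5×10^2–2.5×10^3 CFU/ml; 35 °C, static, 48 h; visual MIC = no-growth endpoint.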
In general terms: In broth dilution the organism is exposed to a series of concentrations in liquid medium.

The next data set deals with Candida krusei ATCC 6258. Nature of the data set: microbe, parasite or virus in culture. It counts as cell-based. The following applies: RPMI broth microdilution, 35° C., 48 hours, visual. The method in brief:
as §3

Data set [9] deals with Candida albicans ATCC MYA-2876. Description: microbe, parasite or virus in culture. In kind it is cell-based. As to conditions: RPMI broth microdilution, 35° C., 48 hours, visual. The method in brief: as §3
Data set [10] has as its system Candida dubliniensis ATCC MYA-646. Description: microbe, parasite or virus in culture. As to conditions: RPMI broth microdilution, 35° C., 48 hours, visual. In kind it is cell-based. In outline:
as §3

The subject of data set [11] is Candida albicans (Olomouc). Description: microbe, parasite or virus in culture. It counts as cell-based. The following applies: RPMI broth microdilution, 35° C., 48 hours, visual. The method in brief: as §3
The subject of data set [12] is Candida tropicalis ATCC 750. Nature of the data set: microbe, parasite or virus in culture. In kind it is cell-based. The following applies: RPMI broth microdilution, 35° C., 48 hours, visual. The method in brief: as §3
In another data set the test system is Candida glabrata DSY 565. Nature of the data set: microbe, parasite or virus in culture. In kind it is cell-based. The following applies: RPMI broth microdilution, 35° C., 48 hours, visual. The method in brief:
as §3

The next data set in a line: in vitro. As to conditions: human. The method in brief:
as §1

Turning to “H-GIMSSLMKKLAAHIAK-NH2 [hylanine, reference compound]”, in the data set with human red blood cells, the “toxicity against eukaryotic cells measured as hemolytic activity” value is given as “very low”.

Consider H-KILSSLLKKLKKIIAK-NH2 [VI], for which, in the data set on P. aeruginosa (Liberec), the “FIC indexes (fractional inhibitory concentration) Combination with RIF against P. aeruginosa” value is given as 0.260 and the “FIC indexes (fractional inhibitory concentration) Combination with TET against P. aeruginosa” value amounted to 0.708. Besides, in data set [1], the “Antimicrobial activity MIC P. a. 5482” value came out at 5.0 µM. In addition, in data set [2], the “Antimicrobial activity MIC S. a. 6271” value is 32.0 µM. Further, in data set [3], the “Antimicrobial activity MIC S. a. Motol” value came to 10.0 µM. In addition, the “Antimicrobial activity MIC C. a. Olomouc” value in the data set on Candida albicans Olomouc was determined as 25.3 µM. Further, the “Antimicrobial activity MIC E. c.” value with Escherichia coli was 16.0 µM. In [4], the “Antimicrobial activity MIC S. e. Motol” value was determined as 1.4 µM. The “Antimicrobial activity MIC B. s.” value in the data set on Bacillus subtilis was 1.3 µM. Moreover, the “Antimicrobial activity MIC E. f. Motol” value in data set [5] worked out at 32.5 µM. Besides, in [6], the “Antimicrobial activity MIC S. a. Liberec” value was 5.5 µM. In the data set on Micrococcus luteus, the “Antimicrobial activity MIC M. l.” value amounted to 1.0 µM. Further, in data set [7], the “Antimicrobial activity MIC P. a. Liberec” value stood at 16.0 µM. The “FIC indexes (fractional inhibitory concentration) Combination with AMX against S. aureus” value in the data set on S. aureus (Liberec) was found to be 0.292. The “Antifungal activity MIC C. glabrata ATCC 2001” value in data set [8] stood at 28.0 µM. In addition, the “Antifungal activity MIC C. krusei ATCC 6258” value with Candida krusei ATCC 6258 was 4.8 µM. Further, the “Antifungal activity MIC C. albicans ATCC MYA-2876” value in [9] was determined as 20.0 µM. Further, in data set [10], the “Antifungal activity MIC C. dubliniensis ATCC MYA-646” value stood at 12.0 µM. Also, in [11], the “Antifungal activity MIC C. albicans Olomouc” value came to 12.0 µM. In data set [12], the “Antifungal activity MIC C. tropicalis ATCC 750” value came to 0.9 µM. For the same substance, the “Antifungal activity MIC C. glabrata DSY 565” value with Candida glabrata DSY 565 amounted to 71.1 µM. In the data set “in vitro”, this substance displayed an HC50 at 1 h of 364 µM.

H-GILSSWLKKLKKIIAK-NH2 [XV]: in the data set on P. aeruginosa (Liberec), the “FIC indexes (fractional inhibitory concentration) Combination with RIF against P. aeruginosa” value came to 0.396 and the “FIC indexes (fractional inhibitory concentration) Combination with TET against P. aeruginosa” value stood at 0.646. For the same substance, the “Antimicrobial activity MIC P. a. 5482” value in data set [1] stood at 4.0 µM. For the same substance, the “Antimicrobial activity MIC S. a. 6271” value in [2] is 16.0 µM. The “Antimicrobial activity MIC S. a. Motol” value in data set [3] is 16.2 µM. In addition, the “Antimicrobial activity MIC C. a. Olomouc” value in the data set on Candida albicans Olomouc amounted to 16.7 µM. Also, the “Antimicrobial activity MIC E. c.” value with Escherichia coli was 11.0 µM. For the same substance, the “Antimicrobial activity MIC S. e. Motol” value in [4] was determined as 2.0 µM. Also, the “Antimicrobial activity MIC B. s.” value in the data set with Bacillus subtilis was 1.6 µM. Also, the “Antimicrobial activity MIC E. f. Motol” value in data set [5] worked out at 73.3 µM. The “Antimicrobial activity MIC S. a. Liberec” value in data set [6] amounted to 6.6 µM. Moreover, in the data set with Micrococcus luteus, the “Antimicrobial activity MIC M. l.” value came out at 1.6 µM. In data set [7], the “Antimicrobial activity MIC P. a. Liberec” value is 5.9 µM. Moreover, the “FIC indexes (fractional inhibitory concentration) Combination with AMX against S. aureus” value with S. aureus (Liberec) was 0.375. Besides, the “Antifungal activity MIC C. glabrata ATCC 2001” value in data set [8] amounted to 40.0 µM. Moreover, in the data set with Candida krusei ATCC 6258, the “Antifungal activity MIC C. krusei ATCC 6258” value is 8.0 µM. In addition, the “Antifungal activity MIC C. albicans ATCC MYA-2876” value in data set [9] turned out to be 17.0 µM. Also, the “Antifungal activity MIC C. dubliniensis ATCC MYA-646” value in [10] turned out to be 22.0 µM. The “Antifungal activity MIC C. albicans Olomouc” value in data set [11] turned out to be 21.0 µM. Also, in data set [12], the “Antifungal activity MIC C. tropicalis ATCC 750” value was 1.2 µM. Also, in the data set on Candida glabrata DSY 565, the “Antifungal activity MIC C. glabrata DSY 565” value came to 88.9 µM. This substance returned an HC50 at 1 h in “in vitro” of more than 400 µM.
